In patent US10849886B2, “Combination therapy using azabicyclo compound for cancer” (TAIHO PHARMACEUTICAL CO., LTD., priority 2013, dated 2020):

Experiments:
SBC-1 tumor = assay: Nude mouse xenograft, small cell lung cancer line SBC-1, tumor growth (T/C); assay type: in vivo, nude mice; settings: Compound 1 28 mg/kg orally on Days 1, 3, 5, 8, 10, 12, amrubicin […] intravenously on first day, alone or combined; test end date
NCI-H2170 tumor = assay: Nude mouse xenograft, NSCLC NCI-H2170, tumor growth (T/C); assay type: in vivo, nude mice; settings: Compound 1 5 mg/kg orally, docetaxel 15 mg/kg intravenously on first day, alone or combined; RTV ratio to control on test end date
Protocol: NCI-H2170 (ATCC #CRL-5928) as a human non-small cell lung cancer (NSCLC) cell line was obtained from American Type Culture Collection (ATCC; Manassas, Va., USA). In RPMI-1640 (containing 4.5 g/L of glucose, 10 mM of HEPES, and 1 mM of sodium pyruvate) (Wako Pure Chemical Industries, Ltd.) medium supplemented with 10% fetal bovine serum (FBS), cell lines were cultured. The cells cryopreserved in liquid nitrogen were quickly thawed at 37° C., transferred to a tissue culture flask containing a medium, and allowed to grow in a 5% CO2 incubator at 37° C. The NCI-H2170 cell lines were sub-cultured once to twice a week at a dilution ratio of 1:5 to 1:10. […]
Subsequently, the cell was allowed to grow for one to two weeks after transplantation until the tumor volume (TV) reached 100 to 300 mm^3. Digimatic Caliper was used in measurement of the tumor diameter, the major axis and the minor axis of the tumor were measured, and TV was calculated by the following formula. […]
Animals having an extremely small or large tumor volume were excluded and the remaining animals were allocated to each group by a stratified randomization allocation method using TV as an index. A relative tumor volume (RTV) was calculated from TV as an endpoint. […] RTV and T/C (%) were calculated by the following formula. […]

NCI-N87 tumor = assay: Nude mouse xenograft, stomach cancer line NCI-N87, tumor growth (T/C); assay type: in vivo, nude mice; settings: Compound 1 5 mg/kg orally, cisplatin 7 mg/kg intravenously on first day, alone or combined; test end date
NCI-H441 tumor = assay: Nude mouse xenograft, NSCLC NCI-H441, tumor growth (T/C); assay type: in vivo, nude mice; settings: Compound 1 5 mg/kg orally, paclitaxel 30 mg/kg intravenously on first day, alone or combined; test end date
[1] = Storage stability of Compound 1 suspension in 0.5% hypromellose aqueous solution; assay type: physicochemical; settings: stored in refrigerator
Protocol: In order to administer Compound 1, a 0.5% hypromellose aqueous solution was prepared. Hypromellose was weighed in a beaker, and distilled water (Otsuka Pharmaceutical Factory, Inc.) was added thereto in an amount of about 80% of the preparation amount. The mixture was completely dissolved by being stirred overnight using a stirrer at a low-temperature chamber, the resultant solution was transferred to a measuring cylinder, and distilled water was added to dilute to the preparation amount. Compound 1 was weighed in a necessary amount, pulverized with an agate mortar, suspended with a 0.5% hypromellose aqueous solution to have a predetermined concentration, and then subjected to ultrasonic treatment, thereby obtaining a homogeneous suspension. 10 mL of this suspension was administered orally per kg of body weight. Incidentally, the suspension was stored in a refrigerator at times other than administration.

CCc1cc(C(N)=O)ccc1-n1nc(C(C)C)c2c(-n3cnc(-c4cnn(C)c4)c3)ccnc21 [Compound 1, 3-ethyl-4-{3-isopropyl-4-(4-(1-methyl-1H-pyrazol-4-yl)-1H-imidazol-1-yl)-1H-pyrazolo[3,4-b]pyridin-1-yl}benzamide]
T/C value (SBC-1 tumor): 49%
T/C value (NCI-H2170 tumor): 72%
T/C value (NCI-N87 tumor): 51%
T/C value (NCI-H441 tumor): 63%
stability of suspension [1]: refrigerator-stable for two weeks

CC(=O)[C@]1(N)Cc2c(O)c3c(c(O)c2[C@@H](O[C@H]2C[C@H](O)[C@H](O)CO2)C1)C(=O)c1ccccc1C3=O [amrubicin, reference compound]
T/C value (SBC-1 tumor): 40%

N.N.[Cl][Pt][Cl] [cisplatin, reference compound]
T/C value (NCI-N87 tumor): 65%

CC(=O)O[C@@]12CO[C@@H]1C[C@H](O)[C@@]1(C)C(=O)[C@H](O)C3=C(C)[C@@H](OC(=O)[C@H](O)[C@@H](NC(=O)OC(C)(C)C)c4ccccc4)C[C@@](O)([C@@H](OC(=O)c4ccccc4)[C@H]21)C3(C)C [docetaxel, reference compound]
T/C value (NCI-H2170 tumor): 86%

CC(=O)O[C@H]1C(=O)[C@@]2(C)[C@H]([C@H](OC(=O)c3ccccc3)[C@]3(O)C[C@H](OC(=O)[C@H](O)[C@@H](NC(=O)c4ccccc4)c4ccccc4)C(C)=C1C3(C)C)[C@]1(OC(C)=O)CO[C@@H]1C[C@@H]2O [paclitaxel, reference compound]
T/C value (NCI-H441 tumor): 41%
